# Laboratory results from publication PMC11125126, “Synthesis, Characterisation, and In Vitro Evaluation of Biocompatibility, Antibacterial and Antitumor Activity of Imidazolium Ionic Liquids” (Pharmaceutics, 2024).
# Like-named read-outs stand apart in the source and are kept apart here.
# Tests used:
# Escherichia coli = test: MIC/MBC by broth dilution, pure ILs; assay type: cell-based; conditions: 24 h
# Text: (§1) Within the Di3A (Dipartimento di Agricoltura, Alimentazione e Ambiente, University of Catania, Italy) microbial collection, two Gram-negative strains (Escherichia coli and Pseudomonas fluorescens) and one Gram-positive strain (Listeria monocytogenes) were studied in order to define the potential efficacy of ionic liquids in relation to the different structure of the bacterial cell wall.
# (§2) For the pure ILs, the minimal inhibitory concentration (MIC) and minimal bactericidal concentration (MBC) were determined in Nutrient Broth (NB, Oxoid, Basingstoke, UK) medium by broth dilution method, according to the Clinical and Laboratory Standards Institute (CLSI).
# (§3) All the bacterial strains were individually grown for 24 h at 35 or 27 °C for P. fluorescens, with shaking. After the incubation period, the cells were collected by centrifugation and re-suspended in sterile NB to obtain a stock culture of 10^9 CFU/mL.
# (§4) Tubes containing 5 mL of NB with decreasing concentrations of ILs (1000, 500, 250, 125, 50, 25, 12.5, 5 and 0 µg/mL) were inoculated with each bacterial stock culture at a final concentration of 10^6 CFU/mL.
# (§5) Tubes were incubated at 35 or 27 °C in an orbital shaker and evaluated for the viable count of E. coli, P. fluorescens, and L. monocytogenes after 24 h by spread-plating 100 µL of each suspension on Nutrient Agar (NA, Oxoid, Basingstoke, UK) incubated for 24–48 h at 35 or 27 °C.
# (§6) In this study, MIC and MBC are expressed in both µg/mL and µM to make the comparison with the literature data easy. Each experiment was performed in triplicate.
# [1] = Thermogravimetric analysis (TGA), thermal stability; assay type: physicochemical; conditions: neat ILs; single-step degradation; 10 °C/min, nitrogen
# Protocol: Thermal stability and kinetic parameters of the synthesised ILs were investigated using the TA instruments Q500 thermogravimetric analyser (Milan, Italy). A certain amount of sample (4–5 mg) was placed in a platinum pan and heated at 10 °C min^−1 from 40 to 600 °C under a flow of nitrogen (60 mL/min).
# Thermogravimetric analyses were performed to evaluate the thermal stability of ILs and PVC/IL blends. Before testing, the samples were subjected to drying cycles in a vacuum stove for 24 h at 50–60 °C, according to the thermal features of ILs, mainly considering their melting points. The ILs C9mimBF4, C10mimBF4, C9mimDMSIP, and C10mimDMSIP, which are liquid at RT, were left to dry at 30 °C for 4–5 h. […] Considering this, the 40–600 °C degradation temperature range was adopted for the subsequent TGA analyses. […] Furthermore, platinum pans and nitrogen as purge gas were used, and the temperature at which 5% weight loss occurred was defined as Tonset, aiming to avoid the decomposition differences due to pan and gas types, as well as the uncertainty from the manual determination of the Tonset tangent point, respectively. Many features can influence the thermal stability of ILs, mainly the coordinating nature of the anion. Indeed, the highly coordinating halide anions (Cl, Br) display a thermal stability lower than that of poor coordinating anions (PF6). The type of cation core influences the thermal stability of ILs, with a decreasing temperature resistance in the following order: pyrrolidinium, imidazolium, pyridinium, and non-cyclic tetra-alkyl ammonium. The increasing alkyl chain length of the imidazolium cation and branching of the alkyl substituents induce a reduction in thermal stability. Furthermore, a decrease in thermal stability is determined by the presence of alkoxylated side chains in methylimidazolium, piperidinium, and pyrrolidinium cations.
# As the industrial production of end products usually involves processing methodologies during which undesirable degradation processes could affect materials’ performance, the thermal stability of neat PVC and PVC/IL film blends was analysed. As detailed for TGA analyses of pure ILs, the stability of the PVC/IL blends was determined at heating runs of 10 °C/min from 40 to 600 °C under a nitrogen atmosphere using a platinum pan. These things considered, the temperature at 5% weight loss was considered as Tonset.
# MCF7 cancer cells = test: Direct cytotoxicity test of IL powders, Alamar blue assay; assay type: cell-based, human; conditions: 24 h of incubation
# Protocol: (§7) Cytotoxicity studies on IL powders were carried out using human dermal fibroblast (HDF) cells (Sigma-Aldrich) and a human breast cancer cell line (MCF7). In addition, ILs loaded in PVC polymer substrates were tested for their cytocompatibility and adhesion properties on the HDF. HDF cells were cultured in 75 cm^2 cell culture flask in Dulbecco’s Modified Eagle’s Medium (DMEM) supplemented with 20% Foetal Bovine Serum (FBS), 1% non-essential amino acid (NEAA), antibiotic solution (streptomycin 100 µg/mL and penicillin 100 U/mL, Sigma Aldrich) and 2 mM L-glutamine. MCF7 cells were grown in DMEM with 10% FBS and the same antibiotics as mentioned above. The cells were maintained in a culture at 37 °C, with 5% CO2 and 95% humidity to achieve a confluent layer. Control cells were cultured in a complete medium without any compounds in tissue culture plates. Before biological testing, the samples were sterilised using a UV light for 2 h.
# (§8) A direct cytotoxicity test was used to assess the in vitro cytotoxicity of IL powders. IL powders with different alkyl chains were dissolved in DMEM media to obtain solutions at various concentrations (0.5–1–5 and 10 µg/mL) to determine the best formulation.
# (§9) After 24 h of incubation of IL solutions (200 µL) with seeded cells under specific environmental conditions (T = 37 °C, HR = 95%, CO2 = 5%), cell viability was tested using the Alamar blue assay (AbD Serotec, Milan, Italy) following the manufacturer’s instructions.
# (§10) In summary, each well received a 200 µL aliquot of Alamar Blue^TM diluted 1:10 in phenol red-free medium and was incubated for 4 h at 37 °C, 5% CO2. Following this, 100 µL of the solution was transferred to a 96-well plate for colorimetric analysis. Wells with no cells were included to account for any background interference from the redox indicator. Optical density was immediately measured using a spectrophotometer (Victor X3, Perkin Elmer, Waltham, MA, USA) at 560 and 595 nm wavelengths. The results were presented as a percentage of cell viability compared to that of the control (cells grown on tissue culture plates).
# (§11) Here, the antitumor activity and cytotoxicity of the synthetised imidazolium-based ionic liquids have been determined for breast cancer cells (MCF-7) and healthy human fibroblast (HDF) cells. […] Table 5 reports the IC50 values in µg/mL and µM to make their comparison with the literature data easy.
# HDF cells = test: as above; assay type: cell-based, human; conditions: 24 h of incubation
# Protocol: as §7, §8, §9, §10, §11
# Pseudomonas fluorescens = test: MIC/MBC by broth dilution, pure ILs; assay type: cell-based; conditions: 24 h, NI = no inhibition at IL maximum concentration used (1000 µM), read-out: MIC
# Text: as §1, §2
# All the bacterial strains were individually grown for 24 h at 35 or 27 °C for P. fluorescens, with shaking. After the incubation period, the cells were collected by centrifugation and re-suspended in sterile NB to obtain a stock culture of 10^9 CFU/mL. […]
# as §5, §6
# Listeria monocytogenes = test: MIC/MBC by broth dilution, pure ILs; assay type: cell-based; conditions: 24 h
# Text: as §1, §2, §3, §4, §5, §6
# [2] = NI = no inhibition at IL maximum concentration used (1000 µM), read-out: MIC
MIC (Escherichia coli; 10^6 CFU/mL) [µg/mL],"Td, maximum degradation temperature [1] [°C]",MIC (Listeria monocytogenes; 10^6 CFU/mL) [µg/mL],Structure (SMILES),MIC (Escherichia coli; [2]) [µM],IC50 MCF7 (MCF7 cancer cells; n = 3) [µg/mL],"IC50 (MCF7 cancer cells; n = 3, mean ± SD) [µM]",IC50 (HDF cells; n = 3) [µM],"IC50 HDF (HDF cells; n = 3, mean ± SD) [µg/mL]",MIC (Pseudomonas fluorescens) [µM],"MIC (Escherichia coli; 10^6 CFU/mL, read-out: MIC) [µg/mL]","MIC (Listeria monocytogenes; 10^6 CFU/mL, read-out: MIC) [µg/mL]",MIC (Listeria monocytogenes; [2]) [µM],"IC50 (MCF7 cancer cells; Homo sapiens, n = 3) [µg/mL]","IC50 (MCF7 cancer cells; Homo sapiens, n = 3, mean ± SD) [µM]","IC50 (HDF cells; Homo sapiens, n = 3) [µM]","IC50 (HDF cells; Homo sapiens, n = 3, mean ± SD) [µg/mL]"
482.59,389.7,–,CCCCCCCCC[n+]1ccn(C)c1.COC(=O)c1cc(C(=O)OC)cc(S(=O)(=O)[O-])c1 [C9mimDMSIP],1000,> 24.13,> 50,10.3,4.96 ± 0.05,–,–,–,–,–,–,–,–
> 636.88,412.2,> 636.88,"CCCCCCCCCCCCCCCCCCCCn1cc[n+](C)c1.COC(=O)c1cc(C(=O)OC)cc(S(=O)(=O)[O-])c1 [C20mimDMSIP, 1-eicosyl-3-methylimidazolium 1,3-dimethyl-5-sulfoisophthalate]",–,4.71,7.39,8.01,5.10 ± 0.02,–,–,–,–,–,–,–,–

Structure (SMILES),MIC (Escherichia coli; 10^6 CFU/mL) [µg/mL],"Td, maximum degradation temperature [1] [°C]",MIC (Listeria monocytogenes; 10^6 CFU/mL) [µg/mL],MIC (Escherichia coli; [2]) [µM],IC50 MCF7 (MCF7 cancer cells; n = 3) [µg/mL],"IC50 (MCF7 cancer cells; n = 3, mean ± SD) [µM]",IC50 (HDF cells; n = 3) [µM],"IC50 HDF (HDF cells; n = 3, mean ± SD) [µg/mL]",MIC (Pseudomonas fluorescens) [µM],"MIC (Escherichia coli; 10^6 CFU/mL, read-out: MIC) [µg/mL]","MIC (Listeria monocytogenes; 10^6 CFU/mL, read-out: MIC) [µg/mL]",MIC (Listeria monocytogenes; [2]) [µM],"IC50 (MCF7 cancer cells; Homo sapiens, n = 3) [µg/mL]","IC50 (MCF7 cancer cells; Homo sapiens, n = 3, mean ± SD) [µM]","IC50 (HDF cells; Homo sapiens, n = 3) [µM]","IC50 (HDF cells; Homo sapiens, n = 3, mean ± SD) [µg/mL]"
CCCCCCCCCCCCCCCCCCCC[n+]1ccn(C)c1.F[B-](F)(F)F [C20mimBF4],–,427.9,–,> 1000,–,–,–,–,> 1000,> 450,> 450,> 1000,3.47,7.71,5.99,2.7 ± 0.19
